Patent publication US20260125382A1, “COMPOUNDS FOR INHIBITING OR DEGRADING CDK2 AND/OR CDK9 AND MEDICINAL USE THEREOF” (KOREA RESEARCH INSTITUTE OF CHEMICAL TECHNOLOGY, priority 2022, published 2026)

Tests used:
CDK2 = biological target: T1, CDK2 (Homo sapiens, UniProt P24941); test: CDK protein degradation activity (Western blotting), CDK2; assay type: cell-based; conditions: MDA-MB-231 cells, 16 hours, Western blot
T1 construct: endogenous in cells; host or cells: MDA-MB-231
Outline: (§1)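 Breast cancer line MDA-MB-231, 16 h compound treatment (100 nM–10 μM final, three doses). Immunoblot quantification of CDK2/CDK9 versus tubulin, normalized to DMSO control.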

CDK9 = biological target: T2, CDK9 (Homo sapiens, UniProt P50750); test: CDK protein degradation activity (Western blotting), CDK9; assay type: cell-based; conditions: MDA-MB-231 cells, 16 hours, Western blot
T2 construct: endogenous in cells; host or cells: MDA-MB-231
Outline: as §1

T2 sequence (P50750 whole entry): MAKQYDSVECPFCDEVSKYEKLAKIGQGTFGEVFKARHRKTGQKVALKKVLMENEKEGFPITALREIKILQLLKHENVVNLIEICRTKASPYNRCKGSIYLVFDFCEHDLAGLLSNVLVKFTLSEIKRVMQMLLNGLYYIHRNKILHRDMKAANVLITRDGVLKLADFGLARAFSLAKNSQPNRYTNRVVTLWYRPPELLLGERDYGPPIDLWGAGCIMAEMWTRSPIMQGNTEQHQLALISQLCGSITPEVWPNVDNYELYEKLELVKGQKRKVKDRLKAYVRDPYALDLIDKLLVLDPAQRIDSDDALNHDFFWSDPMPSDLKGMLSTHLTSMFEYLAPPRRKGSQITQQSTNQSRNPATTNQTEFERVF

| SMILES | Enzyme degradation CDK2 (% remaining) @ 0.1 μM (CDK2) | Enzyme degradation CDK2 (% remaining) @ 1 μM (CDK2) | Enzyme degradation CDK2 (% remaining) @ 10 μM (CDK2) | Enzyme degradation CDK9 (% remaining) @ 0.1 μM (CDK9) | Enzyme degradation CDK9 (% remaining) @ 1 μM (CDK9) | Enzyme degradation CDK9 (% remaining) @ 10 μM (CDK9) |
| --- | --- | --- | --- | --- | --- | --- |
| O=C1CCC(n2nnc3ccc(N4CCC(CCN5CCN(c6ccc(Nc7ncnc8c7ncn8[C@H]7C[C@@H](NC(=O)c8c(Cl)cccc8Cl)C7)cc6)CC5)CC4)cc3c2=O)C(=O)N1 (stereo partly drawn) [Compound 407, 2,6-dichloro-N-((1s,3s)-3-(6-((4-(4-(2-(1-(3-(2,6-dioxopiperidin-3-yl)-4-oxo-3,4-dihydrobenzo[d][1,2,3]triazin-6-yl)piperidin-4-yl)ethyl)piperazin-1-yl)phenyl)amino)-9H-purin-9-yl)cyclobutyl)benzamide] | 60/60/60% | 60/60/60% | 60/60/60% | 0/0/0% | 0/0/0% | 0/0/0% |
| O=C1CC[C@H](N2C(=O)c3ccc(OCC(=O)N4CCC5(CC4)CC(N4CCN(c6ccc(Nc7ncnc8c7ncn8[C@H]7C[C@@H](NC(=O)Cc8ccccc8)C7)cc6)CC4)C5)cc3C2=O)C(=O)N1 [Compound 208, N-((1s,3s)-3-(6-((4-(4-(7-(2-((2-(2,6-dioxopiperidin-3-yl)-1,3-dioxoisoindolin-5-yl)oxy)acetyl)-7-azaspiro[3.5]nonan-2-yl)piperazin-1-yl)phenyl)amino)-9H-purin-9-yl)cyclobutyl)-2-phenylacetamide] | 80% | 70% | 70% | 10% | 0% | 0% |
| O=C1CC[C@H](n2nnc3ccc(N4CCN(CC5CCN(c6ccc(Nc7ncnc8c7ncn8C7CC(NC(=O)c8c(Cl)cccc8Cl)C7)cc6)CC5)CC4)cc3c2=O)C(=O)N1 (stereo partly drawn) [Compound 370, 2,6-dichloro-N-((1s,3s)-3-(6-((4-(4-((4-(3-(2,6-dioxopiperidin-3-yl)-4-oxo-3,4-dihydrobenzo[d][1,2,3]triazin-6-yl)piperazin-1-yl)methyl)piperidin-1-yl)phenyl)amino)-9H-purin-9-yl)cyclobutyl)benzamide] | 0/0/0% | 0/0/0% | 0/0/0% | 0/0/0% | 0/0/0% | 0/0/0% |
| Cc1cccc(C(=O)NC2CC(n3cnc4c(Nc5ccc(N6CCN(CC7CCN(c8ccc9nnn([C@H]%10CCC(=O)NC%10=O)c(=O)c9c8)CC7)CC6)cc5)ncnc43)C2)n1 (stereo partly drawn) [Compound 378, N-((1s,3s)-3-(6-((4-(4-((1-(3-(2,6-dioxopiperidin-3-yl)-4-oxo-3,4-dihydrobenzo[d][1,2,3]triazin-6-yl)piperidin-4-yl)methyl)piperazin-1-yl)phenyl)amino)-9H-purin-9-yl)cyclobutyl)-6-methylpicolinamide] | 10/10/10% | 10/10/10% | 10/10/10% | 0/0/0% | 0/0/0% | 0/0/0% |
| O=C1CC[C@H](N2C(=O)c3cccc(NC[C@H]4CC[C@H](CN5CCN(c6ccc(Nc7ncnc8c7ncn8[C@H]7C[C@@H](NC(=O)Cc8ccccc8)C7)cc6)CC5)CC4)c3C2=O)C(=O)N1 [Compound 222, N-((1s,3s)-3-(6-((4-(4-(((1r,4r)-4-(((2-(2,6-dioxopiperidin-3-yl)-1,3-dioxoisoindolin-4-yl)amino)methyl)cyclohexyl)methyl)piperazin-1-yl)phenyl)amino)-9H-purin-9-yl)cyclobutyl)-2-phenylacetamide] | 100/100/100% | 100/100/100% | 100/100/100% | 70% | 70% | 80% |
| O=C1CC[C@H](N2C(=O)c3ccc(N4CCC(C(=O)N5CCC(CCN6CCN(c7ccc(Nc8ncnc9c8ncn9C8CC(NC(=O)c9c(Cl)cccc9Cl)C8)cc7)CC6)CC5)CC4)cc3C2=O)C(=O)N1 (stereo partly drawn) [Compound 413, 2,6-dichloro-N-((1s,3s)-3-(6-((4-(4-(2-(1-(1-(2-(2,6-dioxopiperidin-3-yl)-1,3-dioxoisoindolin-5-yl)piperidin-4-carbonyl)piperidin-4-yl)ethyl)piperazin-1-yl)phenyl)amino)-9H-purin-9-yl)cyclobutyl)benzamide] | 30% | 20% | 20% | 10/10/10% | 10/10/10% | 10/10/10% |

Now from value to compound:

| Enzyme degradation CDK2 (% remaining) @ 0.1 μM (CDK2) | Enzyme degradation CDK2 (% remaining) @ 1 μM (CDK2) | Enzyme degradation CDK2 (% remaining) @ 10 μM (CDK2) | Enzyme degradation CDK9 (% remaining) @ 0.1 μM (CDK9) | Enzyme degradation CDK9 (% remaining) @ 1 μM (CDK9) | Enzyme degradation CDK9 (% remaining) @ 10 μM (CDK9) | SMILES |
| --- | --- | --- | --- | --- | --- | --- |
| 40% | 40% | 50% | 0/0/0% | 0/0/0% | 0/0/0% | N#Cc1cccc(C(=O)NC2CC(n3cnc4c(Nc5ccc(N6CCN(CC7CCN(C(=O)C8CCN(c9cc%10c(cc9F)C(=O)N([C@H]9CCC(=O)NC9=O)C%10=O)CC8)CC7)CC6)cc5)ncnc43)C2)n1 (stereo partly drawn) [Compound 472, 6-cyano-N-((1s,3s)-3-(6-((4-(4-((1-(1-(2-(2,6-dioxopiperidin-3-yl)-6-fluoro-1,3-dioxoisoindolin-5-yl)piperidin-4-carbonyl)piperidin-4-yl)methyl)piperazin-1-yl)phenyl)amino)-9H-purin-9-yl)cyclobutyl)picolinamide] |
| 70% | 50% | 60% | 90% | 80% | 50% | Cc1cccc(C(=O)N[C@H]2C[C@H](n3cnc4c(NCCCN5CCN(C(=O)CNc6ccc7c(c6)C(=O)N([C@@H]6CCC(=O)NC6=O)C7=O)CC5)ncnc43)C2)n1 [Compound 141, N-((1r,3r)-3-(6-((3-(4-((2-(2,6-dioxopiperidin-3-yl)-1,3-dioxoisoindolin-5-yl)glycyl)piperazin-1-yl)propyl)amino)-9H-purin-9-yl)cyclobutyl)-6-methylpicolinamide] |
| 40% | 30% | 30% | 20% | 10% | 10% | O=C1CC[C@H](N2C(=O)c3ccc(CCCCN4CCC(N5CCN(c6ccc(Nc7ncnc8c7ncn8C7CC(NC(=O)Cc8ccccc8)C7)cc6)CC5)CC4)cc3C2=O)C(=O)N1 (stereo partly drawn) [Compound 408, N-((1s,3s)-3-(6-((4-(4-(1-(4-(2-(2,6-dioxopiperidin-3-yl)-1,3-dioxoisoindolin-5-yl)butyl)piperidin-4-yl)piperazin-1-yl)phenyl)amino)-9H-purin-9-yl)cyclobutyl)-2-phenylacetamide] |
| 30/30/30% | 30/30/30% | 30/30/30% | 100% | 10% | 0% | Cc1cccc(C(=O)N[C@H]2C[C@@H](n3cnc4c(NCc5ccc(OCCCN6CCN(C(=O)COc7cccc8c7C(=O)N([C@H]7CCC(=O)NC7=O)C8=O)CC6)cc5)ncnc43)C2)n1 [Compound 113, N-((1s,3s)-3-(6-((4-(3-(4-(2-((2-(2,6-dioxopiperidin-3-yl)-1,3-dioxoisoindolin-4-yl)oxy)acetyl)piperazin-1-yl)propoxy)benzyl)amino)-9H-purin-9-yl)cyclobutyl)-6-methylpicolinamide] |
| 20% | 10% | 10% | 10/10/10% | 10/10/10% | 10/10/10% | O=C1CC[C@H](N2C(=O)c3cc(F)c(N4CCC(CN5CCN(c6ccc(Nc7ncnc8c7ncn8[C@H]7C[C@@H](NC(=O)c8cccc(Cl)n8)C7)cc6)CC5)CC4)cc3C2=O)C(=O)N1 [Compound 416, 6-chloro-N-((1s,3s)-3-(6-((4-(4-((1-(2-(2,6-dioxopiperidin-3-yl)-6-fluoro-1,3-dioxoisoindolin-5-yl)piperidin-4-yl)methyl)piperazin-1-yl)phenyl)amino)-9H-purin-9-yl)cyclobutyl)picolinamide] |
